The record followed here is patent publication US20120328569A1, “INHIBITORS OF HEPATITIS C VIRUS NS5B POLYMERASE” (priority 2010, published 2012).

For the assay, the system named is HCV genotype 1b replicon. Put plainly: HCV replicon assay, cell ELISA with antibody to replicon-encoded NS3/4A (genotype 1b replicon). In kind it is cell-based, hepatitis C virus. The note with it: Hepatitis C virus, 96 h, read-out: Replicon 1b IC50 (nM), HCV genotype 1b replicon cells, 96 hours incubation, NS3/4A ELISA readout. The gist of the method:
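An ELISA on lysed cells, using an antibody against NS3/4A protease, served as the proxy for replicon RNA. Cells had first been exposed for 96 h to serially diluted compound in G418-free conditions. Percent of DMSO control was fitted with a four-parameter function to give IC50.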
As for `CNC(=O)c1c(-c2ccc(F)cc2)oc2cc(N(C)S(C)(=O)=O)c(-c3ccc(OC)c(-c4nc5ncc(Cl)cc5o4)c3)cc12` [Example 239], the IC50 is 2.6 nM. Take `CNC(=O)c1c(-c2ccc(F)cc2)oc2cc(N(C)S(C)(=O)=O)c(-c3cccc(-c4nc5nccnc5o4)c3)cc12` [Example 240]: the IC50 turned out to be 1.9 nM.

For the molecule `CNC(=O)c1c(-c2ccc(F)cc2)oc2cc(N(C)S(C)(=O)=O)c(-c3cccc(-c4nc5ncncc5o4)c3)cc12` [Example 241], the IC50 stood at 9.5 nM. As for `CNC(=O)c1c(-c2ccc(F)cc2)oc2cc(N(C)S(C)(=O)=O)c(-c3cccc(-c4nc5cncnc5o4)c3)cc12` [Example 242], the IC50 turned out to be 4.8 nM. As for `CNC(=O)c1c(-c2ccc(F)cc2)oc2cc(N(C)S(C)(=O)=O)c(-c3cc(F)c(F)c(-c4nc5ncccc5o4)c3)cc12` [Example 243], the IC50 was 1.3 nM. For `CNC(=O)c1c(-c2ccc(F)cc2)oc2cc(N(C)S(C)(=O)=O)c(-c3cc(F)c(F)c(-c4nc5cccnc5o4)c3)cc12` [Example 244] the value was 1.3 nM. In the case of `CNC(=O)c1c(-c2ccc(F)cc2)oc2cc(N(C)S(C)(=O)=O)c(-c3cc(F)cc(-c4nc5cccnc5s4)c3)cc12` [Example 245], the IC50 was determined as 2 nM. With `CNC(=O)c1c(-c2ccc(F)cc2)oc2cc(N(C)S(C)(=O)=O)c(-c3ccc(F)c(-c4nc5cccnc5s4)c3)cc12` [Example 246], the IC50 turned out to be 3.6 nM. Take `CNC(=O)c1c(-c2ccc(F)cc2)oc2cc(N(C)S(C)(=O)=O)c(-c3cc(OC)cc(-c4nc5cccnc5s4)c3)cc12` [Example 249]: the IC50 came out at 2.2 nM.

On to `CNC(=O)c1c(-c2ccc(F)cc2)oc2cc(N(C)S(C)(=O)=O)c(-c3cc(-c4nc5cccnc5s4)ccc3OC)cc12` [Example 250], for which the IC50 stood at 5.1 nM. For `CNC(=O)c1c(-c2ccc(F)cc2)oc2cc(N(C)S(C)(=O)=O)c(-c3cccc(-c4nc5ccc(OC)nc5s4)c3)cc12` [Example 251] the value was 4 nM; for `CNC(=O)c1c(-c2ccc(F)cc2)oc2cc(N(C)S(C)(=O)=O)c(-c3cccc(-c4nc5ccc(=O)[nH]c5s4)c3)cc12` [Example 252], 78.2 nM. As for `CNC(=O)c1c(-c2ccc(F)cc2)oc2cc(N(C)S(C)(=O)=O)c(-c3ccc(F)c(-c4nc5ncccc5s4)c3)cc12` [Example 260], the IC50 was determined as 3.7 nM. With `CNC(=O)c1c(-c2ccc(F)cc2)oc2cc(N(C)S(C)(=O)=O)c(-c3cccc(-c4nc5ncc(Cl)cc5s4)c3)cc12` [Example 261], the IC50 turned out to be 2 nM. For the molecule `CNC(=O)c1c(-c2ccc(F)cc2)oc2cc(N(C)S(C)(=O)=O)c(-c3cccc(-c4nc5cnccc5s4)c3)cc12` [Example 262], the IC50 came to 5 nM. `CNC(=O)c1c(-c2ccc(F)cc2)oc2cc(N(C)S(C)(=O)=O)c(-c3cccc(-c4nc5ccncc5s4)c3)cc12` [Example 264]: the IC50 came out at 2.9 nM. Then `CNC(=O)c1c(-c2ccc(F)cc2)oc2cc(N(C)S(C)(=O)=O)c(-c3ccc(OC)c(-c4nc5cccnc5s4)c3)cc12` [Example 271], with 1.5 nM; and `CNC(=O)c1c(-c2ccc(F)cc2)oc2cc(N(C)S(C)(=O)=O)c(-c3cccc(-c4nc5nccnc5s4)c3)cc12` [Example 272], with 3 nM; and `CNC(=O)c1c(-c2ccc(F)cc2)oc2cc(N(C)S(C)(=O)=O)c(-c3cccc(-c4nc5cncnc5s4)c3)cc12` [Example 273], with 2.2 nM. Then `CNC(=O)c1c(-c2ccc(F)cc2)oc2cc(N(C)S(C)(=O)=O)c(-c3cccc(-c4nc5c(F)cccc5s4)c3)cc12` [Example 278], with 3.2 nM; and `CNC(=O)c1c(-c2ccc(F)cc2)oc2cc(N(C)S(C)(=O)=O)c(-c3cccc(-c4nc5cccc(F)c5s4)c3)cc12` [Example 279], with 3.2 nM; and `CNC(=O)c1c(-c2ccc(F)cc2)oc2cc(N(C)S(C)(=O)=O)c(-c3cccc(-c4nc5ccc(NS(C)(=O)=O)cc5o4)c3)cc12` [Example 281, 2-(4-fluorophenyl)-N-methyl-6-(N-methylmethylsulfonamido)-5-(3-(6-(methylsulfonamido)benzo[d]oxazol-2-yl)phenyl)benzofuran-3-carboxamide], with 3.3 nM. For `CNC(=O)c1c(-c2ccc(F)cc2)oc2cc(N(C)S(C)(=O)=O)c(-c3cccc(-c4nc5ccc(NC(C)=O)cc5o4)c3)cc12` [Example 282] the value was 2.3 nM; for `CNC(=O)c1c(-c2ccc(F)cc2)oc2cc(N(C)S(C)(=O)=O)c(-c3cccc(-c4nc5ccc(NC(=O)c6ccccc6)cc5o4)c3)cc12` [Example 283], 17.2 nM; for `CNC(=O)c1c(-c2ccc(F)cc2)oc2cc(N(C)S(C)(=O)=O)c(-c3cccc(-c4nc5ccc(NS(=O)(=O)c6ccccc6)cc5o4)c3)cc12` [Example 284], 5.3 nM. Consider `CNC(=O)c1c(-c2ccc(F)cc2)oc2cc(N(C)S(C)(=O)=O)c(-c3cccc(-c4nc5ccc(NC(=O)[C@@H]6CCCN6C(=O)OC(C)(C)C)cc5o4)c3)cc12` [Example 285], for which the IC50 turned out to be 10.2 nM. In the case of `CNC(=O)c1c(-c2ccc(F)cc2)oc2cc(N(C)S(C)(=O)=O)c(-c3cccc(-c4nc5cc(NS(=O)(=O)c6ccccc6)ccc5o4)c3)cc12` [Example 286], the IC50 amounted to 5.8 nM. Consider `CNC(=O)c1c(-c2ccc(F)cc2)oc2cc(N(C)S(C)(=O)=O)c(-c3cc(F)cc(-c4nc5ccccc5s4)c3)cc12` [Example 289], for which the IC50 was found to be 5.4 nM. In the case of `CNC(=O)c1c(-c2ccc(F)cc2)oc2cc(N(C)S(C)(=O)=O)c(-c3cc(-c4nc5ccccc5s4)ccc3F)cc12` [Example 290], the IC50 worked out at 6.9 nM. Then `CNC(=O)c1c(-c2ccc(F)cc2)oc2cc(N(C)S(C)(=O)=O)c(-c3cccc(-c4nc5cc(F)ccc5s4)c3)cc12` [Example 292], with 5.9 nM; and `CNC(=O)c1c(-c2ccc(F)cc2)oc2cc(N(C)S(C)(=O)=O)c(-c3ccc(F)c(-c4nc5ccc(F)cc5s4)c3)cc12` [Example 293], with 8.6 nM; and `CNC(=O)c1c(-c2ccc(F)cc2)oc2cc(N(C)S(C)(=O)=O)c(-c3ccc(F)c(-c4nc5ccc(C)cc5s4)c3)cc12` [Example 294], with 10 nM. For `CNC(=O)c1c(-c2ccc(F)cc2)oc2cc(N(C)S(C)(=O)=O)c(-c3cccc(-c4nc5cccc(C#N)c5s4)c3)cc12` [Example 295], the IC50 worked out at 4.1 nM.

As for `CNC(=O)c1c(-c2ccc(F)cc2)oc2cc(N(C)S(C)(=O)=O)c(-c3ccc(F)c(-c4nc5ccccc5s4)c3F)cc12` [Example 296], the IC50 amounted to 64.1 nM. Regarding `CNC(=O)c1c(-c2ccc(F)cc2)oc2cc(N(C)S(C)(=O)=O)c(-c3cccc(-c4nc5ccc(CN)cc5s4)c3)cc12` [Example 297, 5-(3-(6-(aminomethyl)benzo[d]thiazol-2-yl)phenyl)-2-(4-fluorophenyl)-N-methyl-6-(N-methylmethylsulfonamido)benzofuran-3-carboxamide], the IC50 is 20.5 nM. `CNC(=O)c1c(-c2ccc(F)cc2)oc2cc(N(C)S(C)(=O)=O)c(-c3cccc(-c4nc5ccc(CN(C)C)cc5s4)c3)cc12` [Example 298, 5-(3-(6-((dimethylamino)methyl)benzo[d]thiazol-2-yl)phenyl)-2-(4-fluorophenyl)-N-methyl-6-(N-methylmethylsulfonamido)benzofuran-3-carboxamide]: the IC50 worked out at 6 nM. In the case of `CNC(=O)c1c(-c2ccc(F)cc2)oc2cc(N(C)S(C)(=O)=O)c(-c3cccc(-c4nc5cccnc5[nH]4)c3)cc12` [Example 299, 5-(3-(3H-imidazo[4,5-b]pyridin-2-yl)phenyl)-2-(4-fluorophenyl)-N-methyl-6-(N-methylmethylsulfonamido)benzofuran-3-carboxamide], the IC50 came out at 3.3 nM.

For `CNC(=O)c1c(-c2ccc(F)cc2)oc2cc(N(C)S(C)(=O)=O)c(-c3ccc(F)c(-c4nc5ccccc5[nH]4)c3)cc12` [Example 300], the IC50 came out at 1.5 nM. Regarding `CNC(=O)c1c(-c2ccc(F)cc2)oc2cc(N(C)S(C)(=O)=O)c(-c3ccc(F)c(-c4nc5cc(F)ccc5[nH]4)c3)cc12` [Example 301], the IC50 was 1.9 nM.

Turning to `CNC(=O)c1c(-c2ccc(F)cc2)oc2cc(N(C)S(C)(=O)=O)c(-c3ccc(F)c(-c4nc5cc(C)ccc5[nH]4)c3)cc12` [Example 302], the IC50 was determined as 3.1 nM.

As for `CNC(=O)c1c(-c2ccc(F)cc2)oc2cc(N(C)S(C)(=O)=O)c(-c3cccc(-c4nc5c(C)cccc5[nH]4)c3)cc12` [Example 303], the IC50 amounted to 1.8 nM. For `CNC(=O)c1c(-c2ccc(F)cc2)oc2cc(N(C)S(C)(=O)=O)c(-c3cccc(-c4nc5c(F)cccc5[nH]4)c3)cc12` [Example 304] the value was 1.3 nM; for `CNC(=O)c1c(-c2ccc(F)cc2)oc2cc(N(C)S(C)(=O)=O)c(-c3cc(F)cc(-c4nc5cccnc5[nH]4)c3)cc12` [Example 305], 1.1 nM; for `CNC(=O)c1c(-c2ccc(F)cc2)oc2cc(N(C)S(C)(=O)=O)c(-c3cc(F)cc(-c4nc5ccc(OC)nc5[nH]4)c3)cc12` [Example 306], 28.8 nM. As to `CNC(=O)c1c(-c2ccc(F)cc2)oc2cc(N(C)S(C)(=O)=O)c(-c3cc(F)cc(-c4nc5c(C)ccnc5[nH]4)c3)cc12` [Example 307], the IC50 stood at 2.4 nM. In the case of `CNC(=O)c1c(-c2ccc(F)cc2)oc2cc(N(C)S(C)(=O)=O)c(-c3ccc(F)c(-c4nc5cccnc5[nH]4)c3)cc12` [Example 308], the IC50 was 2.5 nM. Then `CNC(=O)c1c(-c2ccc(F)cc2)oc2cc(N(C)S(C)(=O)=O)c(-c3ccc(F)c(-c4nc5ccc(OC)nc5[nH]4)c3)cc12` [Example 309], with 3.7 nM; and `CNC(=O)c1c(-c2ccc(F)cc2)oc2cc(N(C)S(C)(=O)=O)c(-c3ccc(F)c(-c4nc5c(C)ccnc5[nH]4)c3)cc12` [Example 310], with 1.8 nM. For the molecule `CNC(=O)c1c(-c2ccc(F)cc2)oc2cc(N(C)S(C)(=O)=O)c(-c3ccc(F)c(-c4nc5cc(Cl)cnc5[nH]4)c3)cc12` [Example 311], the IC50 turned out to be 1.7 nM.

For `CNC(=O)c1c(-c2ccc(F)cc2)oc2cc(N(C)S(C)(=O)=O)c(-c3ccc(OC)c(-c4nc5cccnc5[nH]4)c3)cc12` [Example 312], the IC50 stood at 1.1 nM.
